Reference: patent US20080026054A1, “Novel anelgesic combination” (NECTID INC., priority 2007, published 2008)
Structures can show the parent of a compound that is named as a salt.

System: patients suffering from Chronic non-cancer pain (CNCP)
Experiment: Human clinical trial, pain scored by visual analogue scale (VAS)
Type: in vivo
Details: mean ± SD, scale 0-100 mm
Excerpt: The present inventions disclosed in this specification further include a method of treating pain and pain related conditions. This was established using a well controlled human clinical trial. The method of treating pain and pain related conditions by using a combination disclosed by this invention has been established in a long-term controlled clinical evaluation. A typical study determined the efficacy of tramadol and meloxicam as monotherapy and a combination of meloxicam and a slow release tramadol for the treatment of pain and pain related conditions
• Tramadol hydrochloride: Generic Tramadol Hydrochloride tablets 50 mg, • Meloxicam: Generic Meloxicam tablets 7.5 mg • Slow Release Tramadol Hydrochloride: a) Example 1, b) Ultram ER 100 mg
The administered dosage comprised either tramadol hydrochloride (100 mg) or meloxicam 7.5 mg or a combination of meloxicam (7.5 mg) and slow release tramadol hydrochloride (100 mg) selected from Treatments D or E or a combination of meloxicam 5 mg and a slow release tramadol 100 mg (Treatment F) was administered once a day to the patients in a long-term clinical trial.
140 patients were used in a clinical trial were suffering from Chronic non-cancer pain (CNCP), defined as pain for longer than 6 months, including neuropathic pain, osteoarthritis, rheumatoid arthritis, fibromyalgia, and back and musculoskeletal pain were included in the clinical trial.
Those patients with migraines, dental pain, abdominal pains (from chronic pancreatitis, kidney stones, etc.) and ischemic pain from vascular disease were excluded because they are usually not classified as CNCP. Patients with history of addiction (alcohol or drugs) were excluded from the trials
Randomization was performed with computer-generated random numbers in blocks of 10. Randomization codes of the monotherapy or combination therapy treatments were placed in sequentially numbered, opaque, sealed envelopes in the biopsy center. When a patient was recruited and consented, the next numbered envelope was opened by the operator, who had no knowledge of the randomization code before the treatment
Pain was assessed using a visual analogue scale (VAS) graded from 0-100 mm. Pain scoring was performed every three hours after drug administration for a total of 24 hours.
The patients were taught with a standard method by the physician how to use a VAS scoring from 0 to 100 mm to grade the intensity of pain experienced during the treatment. On that scale, the left endpoint, 0, was defined as no pain and the right endpoint 100, as the worst pain the patient could imagine. There were no further marks on the line. The intensity of pain was indicated by the distance in millimeters from the left end. Patients were asked to grade the pain intensity immediately after the administration of drugs and every three hour after for 24 hours by drawing a vertical line over each VAS line. The doctors who prescribed the medicines obtained all the VAS forms for that specific patient.
Data are expressed as means ±SD. Differences in VAS were analyzed with use of the unpaired Student t test and differences in pain score reductions between the two groups were analyzed with use of the Mann-Whitney U test for the median difference. Similar statistical tests were used for between group comparisons of other outcome variables as appropriate. A two tailed P value of less than. […] SAS software was used for the statistical analysis.
We considered that a clinically significant benefit of using meloxicam and slow release tramadol would be a reduction in the pain score (VAS) of at least 15% compared to the monotherapy with either tramadol hydrochloride or naproxen or meloxicam or placebo. Alternatively, the dose reduction of at least 15% of either NSAID or tramadol when used as combination over the monotherapy as significant benefit

| SMILES | Pain scored by VAS (VAS time 0 hours) [mm] | Pain scored by VAS (VAS time 3 hours) [mm] | Pain scored by VAS (VAS time 6 hours) [mm] | Pain scored by VAS (VAS time 9 hours) [mm] | Pain scored by VAS (VAS time 12 hours) [mm] | Pain scored by VAS (VAS time 15 hours) [mm] | Pain scored by VAS (VAS time 18 hours) [mm] | Pain scored by VAS (VAS time 21 hours) [mm] | Pain scored by VAS (VAS time 24 hours) [mm] |
| --- | --- | --- | --- | --- | --- | --- | --- | --- | --- |
| COc1cccc([C@@]2(O)CCCC[C@@H]2CN(C)C)c1 (racemic) [Treatment A, (±) cis-2-[(dimethylamino)methyl]-1-(3-methoxyphenyl)cyclo-hexanol hydrochloride] | 30.3 ± 21.2 | 22.3 ± 20.1 | 18.3 ± 20.6 | 15.3 ± 17.2 | 12.3 ± 21.2 | 14.3 ± 19.2 | 15.3 ± 21.3 | 14.3 ± 19.2 | 14.3 ± 19.2 |
| Cc1cnc(N/C(O)=C2/C(=O)c3ccccc3S(=O)(=O)N2C)s1 [Treatment B, 4-hydroxy-2-methyl-N-(5-methyl-2-thiazolyl)-2H-1,2-benzothiazine-3-carboxamide-1,1-dioxide] | 34 ± 19.1 | 18 ± 19.1 | 14 ± 21.1 | 14 ± 20.3 | 15 ± 18.6 | 17 ± 21.5 | 19 ± 19.7 | 20 ± 18.3 | 25 ± 20.9 |
